The source of these data is patent US20230227409A1, “QUINOLINONE DERIVATIVES AS METHIONINE ADENOSYLTRANSFERASE 2A INHIBITORS” (IDEAYA BIOSCIENCES, INC., priority 2020, published 2023).

A value given as a limit tells only on which side of the number the result lay.

Experiment [1] has as its target T1, Human MAT2A (Homo sapiens, UniProt P31153).
T1 construct: Human MAT2A: Cepter, amino acids 1-395; purchased Cepter clone ID 329, lot 00023-123; clone ID 334, lot 00023-148
The experiment is described as follows: Phosphate Sensor Fluorescence Assay (Biologic Example B). It counts as biochemical. Particulars: MAT2A enzyme inhibition, Biological Example B; 5.8 nM MAT2A, 500 uM L-methionine, 500 uM ATP; class symbols. On the procedure: (§1) The ability of the compound of present disclosure to inhibit MAT2A enzyme was determined using a Phosphate Sensor Fluorescence Assay described below.
(§2) MAT2A enzyme is incubated with a test compound in DMSO or DMSO and its substrates (L-methionine and ATP) in a microtiter plate. The enzymatic reaction is stopped by the addition of Working Phosphate Sensor Mixture. The plate is analyzed for fluorescence at 450 nm. The high control (DMSO with enzyme and its substrates) gives high fluorescence which represents no inhibition of enzymatic activity while the low control (DMSO with MAT2A substrates and no enzyme) gives low fluorescence which represents full inhibition of enzymatic activity.
MAT2A: 5.8 nM MAT2A (1-395), Cepter, clone ID 334, lot 00023-148 before the addition of Working Phosphate Sensor Mixture
(§3) L-methionine: 500 uM before the addition of Working Phosphate Sensor Mixture
ATP: 500 uM before the addition of Working Phosphate Sensor Mixture
(§4) For the assay, a mixture of 1 mM L-methionine/1 mM ATP (2× final pre-stopped concentration) in assay buffer; MAT2A (2× final pre-stopped concentration) in Assay Buffer and Working Phosphate Sensor Mixture (1.5 uM Phosphate Sensor/30 mM EDTA in Assay Buffer, which is 3× final concentrations) were prepared. Test compounds or DMSO were added to the appropriate well using a Beckman Coulter Echo 550 acoustic liquid handler. 10 µL/well of Assay Buffer was added to the wells corresponding to the negative control and 10 µL/well of MAT2A was added to all the wells except for those corresponding to the negative control. After incubating the plate at room temperature for 15 minutes, 10 μL/well of the 1 mM L-methionine/1 mM ATP mixture was added to all wells. The plate was centrifuged at 1000 rpm for 1 minute and then incubated at room temperature for 1 hour. 10 μL of the Working Phosphate Sensor Mixture was added to all wells and the plate was centrifuged at 1000 rpm for 1 minute. The plate was read for fluorescence at 450 nm after exciting at 430 nm on a Tecan Spark microplate reader.
(§5) Percent inhibition was calculated in Chemical and Biological Information System (CBIS), (ChemInnovation Software Inc.). Curves were fitted by CBIS as % inhibition vs. log [compound concentration] using a 4-parameter inhibition model.
(§6) Fit=(A+((B−A)/(1+((C/x)^D))))
(§7) Compounds 1.001-1.021 were tested using the procedure described in Biological Example A, described above. Compounds 1.022-1.026 were tested using the procedure described in Biological Example B, described above.

Experiment [2] concerns the target T1, Human MAT2A. The experiment can be described thus: Phosphate Sensor Fluorescence Assay (Biologic Example A). It counts as biochemical. Particulars: MAT2A enzyme inhibition, Biological Example A, 500 uM L-methionine, 500 uM ATP. The procedure: as §1, §2
Human MAT2A: Cepter, amino acids 1-395
Assay Buffer: 50 mM Tris, pH 7.5/50 mM KCl/10 mM MgCl2/0.01% Brij-35/1 mM DTT/0.1% BGG/40 nM PNP/6 uM 7-MEG
MAT2A: 10 nM for Cepter clone ID 329, lot 00023-123 before the addition of Working Phosphate Sensor Mixture • 5 nM for Cepter clone ID 334, lot 00023-148 before the addition of Working Phosphate Sensor Mixture
as §3
ATP: 500 uM before the addition of Working Phosphate Sensor Mixture Procedure:
as §4, with “suing D300e digital dispenser. 5 μl/well” for “using a Beckman Coulter Echo 550 acoustic liquid handler. 10 µL/well”, “5 μl/well” for “10 µL/well”, “5 μl/well” for “10 μL/well”, “5 μl” for “10 μL”, “nm.” for “nm on a Tecan Spark microplate reader.”
as §5, §6, §7

T1 sequence (P31153 whole entry, the tested form may be a part): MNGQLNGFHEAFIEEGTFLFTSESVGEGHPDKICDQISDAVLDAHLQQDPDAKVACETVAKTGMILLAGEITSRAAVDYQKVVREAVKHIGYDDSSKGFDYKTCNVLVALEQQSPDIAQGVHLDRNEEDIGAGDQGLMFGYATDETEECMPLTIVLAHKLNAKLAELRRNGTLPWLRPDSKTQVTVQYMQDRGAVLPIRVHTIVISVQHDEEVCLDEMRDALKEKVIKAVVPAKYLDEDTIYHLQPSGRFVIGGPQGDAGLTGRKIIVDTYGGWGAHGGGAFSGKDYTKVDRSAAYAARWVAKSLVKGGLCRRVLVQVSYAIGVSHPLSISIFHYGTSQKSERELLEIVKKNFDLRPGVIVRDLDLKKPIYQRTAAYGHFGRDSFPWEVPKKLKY

What is called IC50 is the concentration at which inhibition is half-maximal. A high value points to weaker potency. As for `Cc1ncccc1-c1c(O)c(=O)[nH]c2ccc(Cl)cc12` [Compound 1.026, 6-Chloro-3-hydroxy-4-(2-methylpyridin-3-yl)quinolin-2(1H)-one], the IC50 on Human MAT2A [1] is 10 to 200 nM.
Compound `COc1c(-c2ccccc2)c2cc(Cl)ccc2[nH]c1=O` [Compound 1.004, 6-chloro-3-methoxy-4-phenylquinolin-2(1H)-one] returned an IC50 on Human MAT2A [2] (class symbols) of 200 to 500 nM.
`Cn1nccc1-c1c(O)c(=O)[nH]c2ccc(C(F)(F)F)cc12` [Compound 1.022, 3-Hydroxy-4-(1-methyl-1H-pyrazol-5-yl)-6-(trifluoromethyl)quinolin-2(1H)-one] registered an IC50 at Human MAT2A [1] of 10 to 200 nM.
With `COc1c(-c2ccccc2)c2cc(Br)ccc2[nH]c1=O` [Compound 1.009, 6-bromo-3-methoxy-4-phenylquinolin-2(1H)-one], the IC50 against Human MAT2A [2] (class symbols) fell in the range of 10 to 200 nM.
In turn, `COc1c(-c2ccccc2)c2cc(C3CC3)ccc2[nH]c1=O` [Compound 1.011, 6-cyclopropyl-3-methoxy-4-phenylquinolin-2(1H)-one] gave an IC50 against Human MAT2A [2] (class symbols) of 10 to 200 nM.
`Cc1ncccc1-c1c(O)c(=O)[nH]c2ccc(C(F)(F)F)cc12` [Compound 1.023, 3-Hydroxy-4-(2-methylpyridin-3-yl)-6-(trifluoromethyl)quinolin-2(1H)-one] had an IC50 against Human MAT2A [1] below 10 nM.
At Human MAT2A [2] (class symbols), `O=c1[nH]c2ccc(Cl)cc2c(-c2ccccc2Cl)c1O` [Compound 1.021, 6-chloro-4-(2-chlorophenyl)-3-hydroxyquinolin-2(1H)-one] returned an IC50 of 10 to 200 nM.
Turning to `CNc1c(-c2ccccc2)c2cc(Cl)ccc2[nH]c1=O` [Compound 1.007, 6-chloro-3-(methylamino)-4-phenylquinolin-2(1H)-one], the IC50 at Human MAT2A [2] (unit inferred) is above 10000 nM.
Consider `COc1c(-c2ccccc2)c2cc(C(F)(F)F)ccc2[nH]c1=O` [Compound 1.019, 3-methoxy-4-phenyl-6-(trifluoromethyl)quinolin-2(1H)-one], for which the IC50 against Human MAT2A [2] (class symbols) is 10 to 200 nM.
Turning to `O=c1[nH]c2ccc(Cl)cc2c(-c2ccccc2)c1O` [Compound 1.010, 6-chloro-3-hydroxy-4-phenylquinolin-2(1H)-one], the IC50 against Human MAT2A [2] (class symbols) lay within 10 to 200 nM.
On the same count and under the same terms, the same measure for `O=c1[nH]c2ccc(Cl)cc2c(-c2ccccc2)c1Sc1ncnc2sccc12` [Compound 1.006, 6-chloro-4-phenyl-3-(thieno[2,3-d]pyrimidin-4-ylthio)quinolin-2(1H)-one]: 1000 to 10000 nM.
Turning to `O=c1[nH]c2ccc(Cl)cc2c(-c2ccccc2)c1S` [Compound 1.015, 6-chloro-3-mercapto-4-phenylquinolin-2(1H)-one], the IC50 against Human MAT2A [2] (class symbols) was 10 to 200 nM.
On the same count and under the same terms, the same measure for `CCCNS(=O)(=O)c1c(-c2ccccc2)c2cc(Cl)ccc2[nH]c1=O` [Compound 1.016, 6-chloro-2-oxo-4-phenyl-N-propyl-1,2-dihydroquinoline-3-sulfonamide]: 1000 to 10000 nM.
For the compound `Cn1c(=O)cc(-c2ccccc2)c2cc(Cl)ccc21` [Compound 1.001, 6-chloro-1-methyl-4-phenylquinolin-2(1H)-one], on Human MAT2A [2] (given as bound), the half-maximal inhibitory concentration (IC50) is above 10000 nM.
Take `CNS(=O)(=O)c1c(-c2ccccc2)c2cc(Cl)ccc2[nH]c1=O` [Compound 1.014, 6-chloro-N-methyl-2-oxo-4-phenyl-1,2-dihydroquinoline-3-sulfonamide]: the IC50 at Human MAT2A [2] (class symbols) fell in the range of 1000 to 10000 nM.
The same measure, in the same setting: the same measure for `CS(=O)(=O)c1c(-c2ccccc2)c2cc(Cl)ccc2[nH]c1=O` [Compound 1.005, 6-chloro-3-(methylsulfonyl)-4-phenylquinolin-2(1H)-one]: 1000 to 10000 nM.
As to `COc1cc(C(F)(F)F)cc2c(-c3ccccc3C)c(O)c(=O)[nH]c12` [Compound 1.024, 3-Hydroxy-8-methoxy-4-(o-tolyl)-6-(trifluoromethyl)quinolin-2(1H)-one], the IC50 against Human MAT2A [1] was 10 to 200 nM.
The compound `Cc1ccccc1-c1c(O)c(=O)[nH]c2ccc(C(F)(F)F)cc12` [Compound 1.018, 3-hydroxy-4-(o-tolyl)-6-(trifluoromethyl)quinolin-2(1H)-one] displayed an IC50 against Human MAT2A [2] (class symbols) of 10 to 200 nM.
The same measure, in the same setting: the same measure for `CN(C)c1c(-c2ccccc2)c2cc(Cl)ccc2[nH]c1=O` [Compound 1.008, 6-chloro-3-(dimethylamino)-4-phenylquinolin-2(1H)-one]: 1000 to 10000 nM; for `Cc1ccccc1-c1c(O)c(=O)[nH]c2ccc(Cl)cc12` [Compound 1.017, 6-chloro-3-hydroxy-4-(o-tolyl)quinolin-2(1H)-one]: 10 to 200 nM.
Compound `O=c1[nH]c2ccc(C(F)(F)F)cc2c(-c2ccccc2)c1O` [Compound 1.020, 3-hydroxy-4-phenyl-6-(trifluoromethyl)quinolin-2(1H)-one] came in with an IC50 at Human MAT2A [2] (class symbols) of 10 to 200 nM.
In turn, `O=c1[nH]c2ccc(Cl)cc2c(-c2ccccc2)c1Sc1nc2ccccc2s1` [Compound 1.013, 3-(benzo[d]thiazol-2-ylthio)-6-chloro-4-phenylquinolin-2(1H)-one] came in with an IC50 against Human MAT2A [2] (class symbols) of 1000 to 10000 nM.
`O=c1[nH]c2ccc(Cl)cc2c(-c2ccccc2)c1S(=O)(=O)c1ccccc1` [Compound 1.003] yielded an IC50 against Human MAT2A [2] (class symbols) of 1000 to 10000 nM.
Same read-out and setting: as for `O=c1[nH]c2ccccc2c(-c2ccccc2)c1Sc1ncnc2sccc12` [Compound 1.002], the figure is 500 to 1000 nM.
`COc1c(-c2cccnc2)c2cc(Cl)ccc2[nH]c1=O` [Compound 1.012, 6-chloro-3-methoxy-4-(pyridin-3-yl)quinolin-2(1H)-one] had an IC50 against Human MAT2A [2] (class symbols) of 200 to 500 nM.
`Cc1ncccc1-c1c(O)c(=O)[nH]c2ccc(Br)cc12` [Compound 1.025, 6-Bromo-3-hydroxy-4-(2-methylpyridin-3-yl)quinolin-2(1H)-one] yielded an IC50 at Human MAT2A [1] of 10 to 200 nM.
